The text below walks through data of US10519114B2, “Peptidomimetics and methods of using the same” (The Regents of the University of Michigan, priority 2016, dated 2019).

The first assay deals with T1, rat μ (C6-MOR) opioid receptor (Rattus norvegicus, UniProt P33535).
T1 construct: expressed in transfected cells
T1 sequence (P33535 whole entry): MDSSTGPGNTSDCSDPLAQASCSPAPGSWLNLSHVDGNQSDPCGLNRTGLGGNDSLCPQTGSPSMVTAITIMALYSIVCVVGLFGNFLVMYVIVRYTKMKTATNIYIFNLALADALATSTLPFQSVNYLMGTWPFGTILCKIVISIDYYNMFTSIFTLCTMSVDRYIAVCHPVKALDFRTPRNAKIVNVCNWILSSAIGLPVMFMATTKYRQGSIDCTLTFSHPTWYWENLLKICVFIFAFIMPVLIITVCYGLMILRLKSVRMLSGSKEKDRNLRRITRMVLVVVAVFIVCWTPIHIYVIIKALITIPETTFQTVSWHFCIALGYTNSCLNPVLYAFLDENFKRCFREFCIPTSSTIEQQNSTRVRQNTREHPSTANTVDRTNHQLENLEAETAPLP
The assay is described as follows: Radioligand binding assay, [3H]diprenorphine displacement, MOR. As to conditions: displacement of 0.2 nM [3H]diprenorphine, C6-MOR membranes; mean ± standard error. An outline of the steps: (§1)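 Cell membranes bearing rat μ or δ receptors (C6 glioma) or human κ receptors (CHO) were mixed with test peptide and 0.2 nM [3H]diprenorphine, incubated to equilibrium for 1 h at room temperature, filtered and counted. 10 μM naloxone set nonspecific binding.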
In general, Ki refers to the equilibrium dissociation constant of an inhibitor or competing ligand from its target. Molecule `CCCc1cc(Cc2ccccc2)cc2c1NCC[C@H]2NC(=O)[C@@H](N)Cc1c(C)cc(O)cc1C` [Compound 1056] showed a Ki of 0.64 ± 0.08 nM.
Molecule `CCc1cc(Cc2ccccc2)cc2c1NCC[C@H]2NC(=O)[C@@H](N)Cc1c(C)cc(O)cc1C` [Compound 1127] came in with a Ki of 0.05 nM.
Regarding `Cc1cc(O)cc(C)c1C[C@H](N)C(=O)N[C@@H]1CCNc2c(-c3ccoc3)cc(Cc3ccccc3)cc21` [Compound 1094], the affinity, expressed as Ki, was 0.34 ± 0.08 nM.
Molecule `CCCCc1cc(Cc2ccccc2)cc2c1NCC[C@H]2NC(=O)[C@@H](N)Cc1c(C)cc(O)cc1C` [Compound 1126] yielded an inhibition constant Ki of 0.75 ± 0.4 nM.

The target of the next assay is T2, rat δ (C6-DOR) opioid receptor (Rattus norvegicus, UniProt P33533).
T2 construct: expressed in transfected cells
T2 sequence (P33533 whole entry): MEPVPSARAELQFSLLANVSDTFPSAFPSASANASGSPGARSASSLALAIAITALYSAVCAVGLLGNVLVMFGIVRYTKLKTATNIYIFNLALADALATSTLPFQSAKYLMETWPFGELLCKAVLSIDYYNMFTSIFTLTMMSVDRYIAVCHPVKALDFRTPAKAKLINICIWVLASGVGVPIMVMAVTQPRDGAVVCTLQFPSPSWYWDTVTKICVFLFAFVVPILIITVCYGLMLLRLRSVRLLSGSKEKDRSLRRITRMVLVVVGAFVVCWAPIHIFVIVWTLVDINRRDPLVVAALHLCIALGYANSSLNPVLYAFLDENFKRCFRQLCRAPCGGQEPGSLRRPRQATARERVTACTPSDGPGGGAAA
The assay is described as follows: Radioligand binding assay, [3H]diprenorphine displacement, DOR. Particulars: displacement of 0.2 nM [3H]diprenorphine, C6-DOR membranes; mean ± standard error. The essentials:
as §1
`CCCc1cc(Cc2ccccc2)cc2c1NCC[C@H]2NC(=O)[C@@H](N)Cc1c(C)cc(O)cc1C` [Compound 1056] showed a Ki of 5.89 ± 1.5 nM.
As for `CCc1cc(Cc2ccccc2)cc2c1NCC[C@H]2NC(=O)[C@@H](N)Cc1c(C)cc(O)cc1C` [Compound 1127], the Ki came out at 4.6 nM.
`Cc1cc(O)cc(C)c1C[C@H](N)C(=O)N[C@@H]1CCNc2c(-c3ccoc3)cc(Cc3ccccc3)cc21` [Compound 1094]: the Ki turned out to be 3.49 ± 0.55 nM.
As to `CCCCc1cc(Cc2ccccc2)cc2c1NCC[C@H]2NC(=O)[C@@H](N)Cc1c(C)cc(O)cc1C` [Compound 1126], the Ki is 3.55 ± 0.46 nM.

For the next assay, the target named is T3, human κ (CHO-KOR) opioid receptor (Homo sapiens, UniProt P41145).
T3 construct: expressed in transfected cells
T3 sequence (P41145 whole entry): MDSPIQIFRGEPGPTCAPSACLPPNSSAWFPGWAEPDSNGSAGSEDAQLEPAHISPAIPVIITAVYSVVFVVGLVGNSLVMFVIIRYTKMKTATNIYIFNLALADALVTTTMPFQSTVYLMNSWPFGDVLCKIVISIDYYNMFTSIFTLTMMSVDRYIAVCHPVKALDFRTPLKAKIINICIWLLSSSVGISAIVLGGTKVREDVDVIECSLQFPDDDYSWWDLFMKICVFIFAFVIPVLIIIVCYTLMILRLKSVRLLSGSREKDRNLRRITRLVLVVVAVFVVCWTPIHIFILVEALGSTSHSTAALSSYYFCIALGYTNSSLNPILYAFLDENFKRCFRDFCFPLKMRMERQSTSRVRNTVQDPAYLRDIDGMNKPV
The assay is described as follows: Radioligand binding assay, [3H]diprenorphine displacement, KOR. Particulars: displacement of 0.2 nM [3H]diprenorphine, CHO-KOR membranes; mean ± standard error. The essentials:
as §1
Turning to `CCCc1cc(Cc2ccccc2)cc2c1NCC[C@H]2NC(=O)[C@@H](N)Cc1c(C)cc(O)cc1C` [Compound 1056], the affinity, expressed as Ki, was 98.4 ± 18.2 nM.
For the molecule `CCc1cc(Cc2ccccc2)cc2c1NCC[C@H]2NC(=O)[C@@H](N)Cc1c(C)cc(O)cc1C` [Compound 1127], the inhibition constant Ki turned out to be 44 nM. This Ki is about 2.2-fold lower than that of the molecule before.
As to `Cc1cc(O)cc(C)c1C[C@H](N)C(=O)N[C@@H]1CCNc2c(-c3ccoc3)cc(Cc3ccccc3)cc21` [Compound 1094], the affinity corresponds to a Ki of 27.9 ± 6.24 nM.
Turning to `CCCCc1cc(Cc2ccccc2)cc2c1NCC[C@H]2NC(=O)[C@@H](N)Cc1c(C)cc(O)cc1C` [Compound 1126], the affinity, expressed as Ki, was 34.4 ± 4.7 nM.

A further assay deals with T1, rat μ (C6-MOR) opioid receptor. The assay is described as follows: Stimulation of [35S]GTPγS binding, MOR. The format is biochemical. As to conditions: [35S]GTPγS binding, C6-MOR membranes; mean ± standard error. An outline of the steps:
(§2)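 Peptide-stimulated [35S]GTPγS (0.1 nM) binding, with 30 μM GDP, 5 mM MgCl2 and 100 mM NaCl at pH 7.4, was measured over 1 h at room temperature. Membranes came from rat MOR/DOR C6 or human KOR CHO cells. Filter-retained counts were expressed against 10 μM DAMGO, DPDPE or U69,593 respectively; maxima were fitted nonlinearly.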
On the technique in general: GTPγS is a poorly hydrolysed GTP analogue; its binding reports G protein activation.
As a reminder, the EC50 is the concentration giving half of the maximal effect. The low end stands for a more potent agent, the high end for a less potent agent. For `CCCc1cc(Cc2ccccc2)cc2c1NCC[C@H]2NC(=O)[C@@H](N)Cc1c(C)cc(O)cc1C` [Compound 1056], the 50% effective concentration (EC50) stood at 23.3 ± 6.94 nM.
The molecule `CCc1cc(Cc2ccccc2)cc2c1NCC[C@H]2NC(=O)[C@@H](N)Cc1c(C)cc(O)cc1C` [Compound 1127] showed a concentration for a half-maximal effect (EC50) of 37 nM. Against the preceding molecule, the EC50 is about 1.6-fold higher.
Same read-out and setting: the same measure for `Cc1cc(O)cc(C)c1C[C@H](N)C(=O)N[C@@H]1CCNc2c(-c3ccoc3)cc(Cc3ccccc3)cc21` [Compound 1094]: 9.77 ± 6.34 nM.
The same measure, in the same setting: the same measure for `CCCCc1cc(Cc2ccccc2)cc2c1NCC[C@H]2NC(=O)[C@@H](N)Cc1c(C)cc(O)cc1C` [Compound 1126]: 17.9 ± 5.83 nM.

Staying with this assay, now noted: [35S]GTPγS maximal stimulation compared with 10 μM standard DAMGO.
Usually Emax stands for the greatest response seen or fitted, relative to the assay's reference. Regarding `CCCc1cc(Cc2ccccc2)cc2c1NCC[C@H]2NC(=O)[C@@H](N)Cc1c(C)cc(O)cc1C` [Compound 1056], the maximum response (Emax) turned out to be 89.5 ± 6.27%.
On the same count and under the same terms, the result for `CCc1cc(Cc2ccccc2)cc2c1NCC[C@H]2NC(=O)[C@@H](N)Cc1c(C)cc(O)cc1C` [Compound 1127] reads 75%; that for `Cc1cc(O)cc(C)c1C[C@H](N)C(=O)N[C@@H]1CCNc2c(-c3ccoc3)cc(Cc3ccccc3)cc21` [Compound 1094], 103 ± 5%; that for `CCCCc1cc(Cc2ccccc2)cc2c1NCC[C@H]2NC(=O)[C@@H](N)Cc1c(C)cc(O)cc1C` [Compound 1126], 85 ± 2%.

The target of a further assay is T2, rat δ (C6-DOR) opioid receptor. In words: Stimulation of [35S]GTPγS binding, DOR. The format is biochemical. As to conditions: [35S]GTPγS binding, C6-DOR membranes; mean ± standard error. An outline of the steps:
as §2
With `CCCc1cc(Cc2ccccc2)cc2c1NCC[C@H]2NC(=O)[C@@H](N)Cc1c(C)cc(O)cc1C` [Compound 1056], the EC50 is 307 ± 28.6 nM.
`CCc1cc(Cc2ccccc2)cc2c1NCC[C@H]2NC(=O)[C@@H](N)Cc1c(C)cc(O)cc1C` [Compound 1127] showed an EC50 of 23 nM.
On the same count and under the same terms, the same measure for `Cc1cc(O)cc(C)c1C[C@H](N)C(=O)N[C@@H]1CCNc2c(-c3ccoc3)cc(Cc3ccccc3)cc21` [Compound 1094]: 74.9 ± 61.5 nM; for `CCCCc1cc(Cc2ccccc2)cc2c1NCC[C@H]2NC(=O)[C@@H](N)Cc1c(C)cc(O)cc1C` [Compound 1126]: 200 ± 77 nM.

Staying with this assay, now noted: [35S]GTPγS maximal stimulation compared with 10 μM standard DPDPE.
In turn, `CCCc1cc(Cc2ccccc2)cc2c1NCC[C@H]2NC(=O)[C@@H](N)Cc1c(C)cc(O)cc1C` [Compound 1056] registered a maximal effect (Emax) of 35.7 ± 2.62%.
On the same count and under the same terms, the same measure for `CCc1cc(Cc2ccccc2)cc2c1NCC[C@H]2NC(=O)[C@@H](N)Cc1c(C)cc(O)cc1C` [Compound 1127]: 48%; for `Cc1cc(O)cc(C)c1C[C@H](N)C(=O)N[C@@H]1CCNc2c(-c3ccoc3)cc(Cc3ccccc3)cc21` [Compound 1094]: 36.7 ± 5.53%.
The molecule `CCCCc1cc(Cc2ccccc2)cc2c1NCC[C@H]2NC(=O)[C@@H](N)Cc1c(C)cc(O)cc1C` [Compound 1126] yielded a maximal effect (Emax) of 24.9 ± 4.43%.

The target of another assay is T3, human κ (CHO-KOR) opioid receptor. The assay is described as follows: Stimulation of [35S]GTPγS binding, KOR. The format is biochemical. Particulars: [35S]GTPγS binding, CHO-KOR membranes; mean ± standard error. The essentials: as §2
Regarding `CCCc1cc(Cc2ccccc2)cc2c1NCC[C@H]2NC(=O)[C@@H](N)Cc1c(C)cc(O)cc1C` [Compound 1056], the “EC50 (nm) KOR” value is recorded as “dns”.
As for `CCc1cc(Cc2ccccc2)cc2c1NCC[C@H]2NC(=O)[C@@H](N)Cc1c(C)cc(O)cc1C` [Compound 1127], the “EC50 (nm) KOR” value is listed as “dns”.
Consider `Cc1cc(O)cc(C)c1C[C@H](N)C(=O)N[C@@H]1CCNc2c(-c3ccoc3)cc(Cc3ccccc3)cc21` [Compound 1094], for which the EC50 was 290 nM.
Turning to `CCCCc1cc(Cc2ccccc2)cc2c1NCC[C@H]2NC(=O)[C@@H](N)Cc1c(C)cc(O)cc1C` [Compound 1126], the “EC50 (nm) KOR” value is reported as “dns”.

Still in this assay, the particulars now being: [35S]GTPγS maximal stimulation compared with 10 μM standard U-69,593.
Turning to `CCCc1cc(Cc2ccccc2)cc2c1NCC[C@H]2NC(=O)[C@@H](N)Cc1c(C)cc(O)cc1C` [Compound 1056], the “% stimulation KOR” value is “dns”.
Regarding `CCc1cc(Cc2ccccc2)cc2c1NCC[C@H]2NC(=O)[C@@H](N)Cc1c(C)cc(O)cc1C` [Compound 1127], the “% stimulation KOR” value is given as “dns”.
`Cc1cc(O)cc(C)c1C[C@H](N)C(=O)N[C@@H]1CCNc2c(-c3ccoc3)cc(Cc3ccccc3)cc21` [Compound 1094] returned a maximum response (Emax) of 29%.
As for `CCCCc1cc(Cc2ccccc2)cc2c1NCC[C@H]2NC(=O)[C@@H](N)Cc1c(C)cc(O)cc1C` [Compound 1126], the “% stimulation KOR” value is on record as “dns”.

The subject of a further assay is C57BL/6 mice. The assay is described as follows: Antinociception, warm water tail withdrawal assay.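 On Antinociceptive activity: fully efficacious means no withdrawal up to the 20 s cutoff.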 The format is in vivo. As to conditions: duration of antinociceptive action, mouse tail withdrawal, 50° C. The protocol:
In Vivo Pharmacology. Animals. Adult male C57BL/6 mice weighing between 20 and 30 g at 8-16 weeks old were used for the current experiments (obtained from Jackson Laboratories (Bar Harbor, Me.), Harlan (Indianapolis, Ind.), or bred in-house). Mice were group-housed and had free access to food and water at all times. Experiments were conducted in the housing room, which was maintained on a 12 h light/dark cycle (with lights on at 0700). Each mouse was used only once and experiments were conducted between 11 a.m. and 4 p.m. Studies were performed in accordance with the University of Michigan Committee on the Use and Care of Animals and the Guide for the Care and Use of Laboratory Animals (National Research Council, 2011 publication).
Antinociception. The antinociceptive effects of the compounds disclosed herein and morphine can be evaluated in the warm water tail withdrawal assay using a cumulative dosing procedure. To determine tail withdrawal latencies, each mouse was placed briefly into a plastic, cylindrical restrainer and 2-3 cm of the tail tip was placed into a water bath maintained at 50° C. The latency to withdraw the tail was recorded with a maximum cutoff time of 20 s. […] Each animal received an injection of saline (intraperitoneal, ip) and then 30 min later, the baseline withdrawal latencies were recorded and ranged between 3 and 6 s. Following baseline determinations, three increasing doses (1, 2.2, and 6.8 mg/kg) of 1(4R) were given at 30 min intervals to provide final doses of 1, 3.2, and 10 mg/kg. Thirty minutes after each injection, the tail withdrawal latency was measured as described above. To confirm that 1(4R) was acting at opioid receptors, the cumulative dose response was repeated over the doses 3.2, 10, and 32 mg/kg following a 30 min pretreatment with 1 mg/kg naltrexone (ip). To determine the time-course of antinociceptive action the tail-withdrawal test was performed at varying times following administration of morphine (10 mg/kg, ip) or 1(4R) (10 mg/kg, ip).
Consider `CCc1cc(Cc2ccccc2)cc2c1NCC[C@H]2NC(=O)[C@@H](N)Cc1c(C)cc(O)cc1C` [Compound 1127], for which the Duration came out at 60 min.
`CCCCc1cc(Cc2ccccc2)cc2c1NCC[C@H]2NC(=O)[C@@H](N)Cc1c(C)cc(O)cc1C` [Compound 1126] gave a Duration of 150 min.

The same assay, now with this note: mouse tail withdrawal, 50° C. water bath, cutoff 20 s, ip.
As to `CCCc1cc(Cc2ccccc2)cc2c1NCC[C@H]2NC(=O)[C@@H](N)Cc1c(C)cc(O)cc1C` [Compound 1056], the Antinociceptive activity entry was “Inactive”.
`CCc1cc(Cc2ccccc2)cc2c1NCC[C@H]2NC(=O)[C@@H](N)Cc1c(C)cc(O)cc1C` [Compound 1127]: the Antinociceptive activity result is “Fully efficacious”.
Consider `Cc1cc(O)cc(C)c1C[C@H](N)C(=O)N[C@@H]1CCNc2c(-c3ccoc3)cc(Cc3ccccc3)cc21` [Compound 1094], for which the Antinociceptive activity entry was “Inactive”.
Turning to `CCCCc1cc(Cc2ccccc2)cc2c1NCC[C@H]2NC(=O)[C@@H](N)Cc1c(C)cc(O)cc1C` [Compound 1126], the Antinociceptive activity result is listed as “Fully efficacious”.
